Measured values as given in PMC6522510 (Nature Communications, 2019).
Read-outs that look alike come from different tables or passages of the source. Blank lines part the entries; values can stand above or below the compound they belong to.

How the values were obtained:
[1] = system: MKPL; assay: cells
[2] = system: CBFA2T3-GLIS2/JAK2V617F tertiary transplant leukemic blasts; type: cell-based, mouse
[3] = system: M07e; assay: cells
[4] = system: WSU; assay: cells; conditions: Homo sapiens, 72 h, read-out: IC50 (WSU)
[5] = system: AMKL patient-derived xenograft; assay: In vivo efficacy, survival; design: species or system NSG-SGM3 mice; conditions: AMKL PDX, 60 mg kg−1 twice daily for 5 days up to 4 weeks, oral gavage
[6] = system: CMK; assay: cells
[7] = system: CHRF288-11; type: cell-based; conditions: Homo sapiens, 72 h
[8] = Pharmacokinetics of ruxolitinib, single oral dose, plasma LC-MS/MS; type: in vivo, mice; conditions: mouse, 60 mg kg−1 oral gavage
Method: Data are mean ± standard error (SE) (N = 5 per gender). Concentration-time data were analyzed by non-compartmental analysis and pharmacokinetic parameters were calculated in WinNonLin. c–e, top Kaplan–Meier analysis of animal survival in c CHRF288–11-luciferase/YFP+ xenograft, d CBFA2T3-GLIS2/JAK2V617F-induced AMKL quaternary transplants, and e AMKL patient-derived xenograft.
Animal studies were performed under protocols approved by the Institutional Animal Care and Use Committee at OSU. […] Serial blood collection was performed from 15 min up to 240 min after dose administration.

[9] = system: CMY; assay: cells
[10] = system: Meg-01; assay: cells
[11] = system: M-MOK; assay: cells
[12] = system: CHRF288-11-luciferase/YFP+ xenograft; assay: In vivo efficacy, survival; design: species or system NSG mice; conditions: CHRF288-11 xenograft, 60 mg kg−1 twice daily for 5 days up to 4 weeks, oral gavage
[13] = system: CMS; type: cell-based; conditions: Homo sapiens, 72 h, read-out: IC50 CMS
[14] = system: CHRF288-11; assay: Secondary dose-response HTS, Cell Titer Glo; type: cell-based, human; conditions: secondary HTS, 72 h, average of triplicate; read-out: EC50 CHRF288-11
[15] = system: MV4-11; assay: Primary HTS, single concentration, Cell Titer Glo; type: cell-based, human; conditions: approximately 10 µM, 72 h, relative to positive control
[16] = system: CMK; assay: Secondary dose-response HTS, Cell Titer Glo; type: cell-based, human; conditions: secondary HTS, 72 h, average of triplicate; read-out: EC50 CMK
[17] = system: U937; assay: Secondary dose-response HTS, Cell Titer Glo; type: cell-based, human; conditions: secondary HTS, 72 h, average of triplicate; read-out: EC50 U937
[18] = system: ML-2; assay: Primary HTS, single concentration, Cell Titer Glo; type: cell-based, human; conditions: approximately 10 µM, 72 h, relative to positive control
[19] = system: MOLM-13; assay: Primary HTS, single concentration, Cell Titer Glo; type: cell-based, human; conditions: approximately 10 µM, 72 h, relative to positive control
[20] = system: CMS; assay: Secondary dose-response HTS, Cell Titer Glo; type: cell-based, human; conditions: secondary HTS, 72 h, average of triplicate; read-out: EC50 CMS
[21] = system: CMK; assay: Primary HTS, single concentration, Cell Titer Glo; type: cell-based, human; conditions: approximately 10 µM, 72 h, relative to positive control
[22] = system: U937; assay: Primary HTS, single concentration, Cell Titer Glo; type: cell-based, human; conditions: approximately 10 µM, 72 h, relative to positive control
[23] = system: M07e; assay: Primary HTS, single concentration, Cell Titer Glo; type: cell-based, human; conditions: approximately 10 µM, 72 h, relative to positive control
[24] = system: CHRF288-11; assay: Primary HTS, single concentration, Cell Titer Glo; type: cell-based, human; conditions: approximately 10 µM, 72 h, relative to positive control
[25] = system: CMS; assay: Primary HTS, single concentration, Cell Titer Glo; type: cell-based, human; conditions: approximately 10 µM, 72 h, relative to positive control
[26] = system: Mll PTD/wt:Flt3 ITD/ITD double knock-in primary transplant blasts (bone marrow, spleen); assay: Accumulation in primary murine blasts; type: cell-based, mouse; conditions: blasts from bone marrow or spleen
Method: Cells were washed twice with ice-cold PBS; cell pellets were solubilized in 400 µL 1 N NaOH and agitated (300 rpm) at room temperature for 2 h. Then samples were neutralized with […] 1 M HCl; a 25 µL aliquot of lysate was used to estimate protein concentration using a Pierce BCA protein assay kit (Thermo Scientific). Total radioactivity was measured by a Tri-Carb 4810TR liquid scintillation counter (Perkin-Elmer) after mixing the sample with 4 mL of Emulsifier Safe (Perkin Elmer); the results were normalized to total protein content as measured by a Pierce BCA protein assay kit. Three independent experiments were performed in triplicate.
Bone marrow and splenocytes were isolated from mice transplanted with dKI AML and CG-V617 AMKL. Following red blood cells lysis, dKI AML leukemic blasts from vehicle treated mice were evaluated for accumulation of cytarabine and gemcitabine using the uptake assay described above.
Supplementary Figure 5. Accumulation of cytarabine and gemcitabine .
unlabeled and [3H]-cytarabine (Ara- C) or gemcitabine ( Gem ). Intracellular Ara- C, Gem ,
scintillation counting and normalized to protein levels. Representative chromatogram for
as disintegrations per minute (DPM) over complete run time. (c) Percentage of total
independent experiments (N=9). (d) Accumulation was determined in cell lysate of bone
double knock-in primary transplant recipient. […]

[27] = system: AML cell lines; assay: Intracellular drug and phosphorylated metabolites by HPLC with liquid scintillation counting; conditions: 2 h, 1 µM
[28] = design: method as in Wang et al., Biol Blood Marrow Transplant 2014 and others; conditions: higher cellular concentrations; ref Wang et al., Biol Blood Marrow Transplant 2014 and others; cited from earlier work

Structure (SMILES): N#CC[C@H](C1CCCC1)n1cc(-c2ncnc3[nH]ccc23)cn1 [Ruxolitinib, ruxolitinib]
IC50 [1]: 6300 nM
sensitivity of primary murine blasts [2]: sensitive
IC50 [3]: 45 nM
IC50 [4]: 8.7 nM
Median survival [5]: 43 days
IC50 [6]: 142 nM
IC50 ([7]; read-out: IC50, ruxolitinib + BMP2, CHRF288-11, 72 h, with 100 ng mL−1 BMP2): 103 nM
IC50 ([7]; read-out: IC50, ruxolitinib + EPO, CHRF288-11, 72 h, with 100 ng mL−1 EPO): 142 nM
IC50 ([7]; read-out: IC50, ruxolitinib + TPO, CHRF288-11, 72 h, with 100 ng mL−1 TPO): 480 nM
IC50 ([7]; read-out: IC50, ruxolitinib alone (Fig. 6g), CHRF288-11, 72 h, without cytokine): 119 nM
IC50 ([7]; read-out: IC50 CHRF288-11, 72 h, Cell Titer Glo): 143 nM
AUC(0-t) ([8]; BoyJ, Female): 16.8 ± 10.8 µM·h
Cmax ([8]; BoyJ, Female): 18.1 ± 10.6 µM
Tmax ([8]; BoyJ, Female): 0.25 h
half-life ([8]; BoyJ, Female): 2.03 ± 1.1 h
AUC(0-t) ([8]; BoyJ, Male): 17.9 ± 6.5 µM·h
Cmax ([8]; BoyJ, Male): 28.6 ± 10.6 µM
Tmax ([8]; BoyJ, Male): 0.25 h
half-life ([8]; BoyJ, Male): 2.64 ± 1.74 h
AUC(0-t) ([8]; NSG, Female): 4.8 ± 0.6 µM·h
Cmax ([8]; NSG, Female): 6.9 ± 1.7 µM
Tmax ([8]; NSG, Female): 0.25 h
half-life ([8]; NSG, Female): 1.26 ± 0.48 h
AUC(0-t) ([8]; NSG, Male): 4.1 ± 0.6 µM·h
Cmax ([8]; NSG, Male): 5.5 ± 1.7 µM
Tmax ([8]; NSG, Male): 0.25 h
half-life ([8]; NSG, Male): 1.32 ± 0.74 h
IC50 [9]: 49 nM
IC50 [10]: > 10000 nM
IC50 [11]: 6.4 nM
Median survival [12]: 31 days
IC50 [13]: 64 nM

EC50 [17]: 40 nM
Structure (SMILES): CC(/C=C/C(=O)NO)=C\[C@@H](C)C(=O)c1ccc(N(C)C)cc1 [Trichostatin A]
EC50 [14]: 40 nM
MV4-11 %inh [15]: 81%
EC50 [16]: 50 nM
ML-2 %inh [18]: 60%
MOLM-13 %inh [19]: 98%
EC50 [20]: 40 nM
CMK %inh [21]: 137%
U937 %inh [22]: 83%
M07e %inh [23]: 147%
CHRF288-11 %inh [24]: 190%
CMS %inh [25]: 111%

Structure (SMILES): Nc1ccn([C@@H]2O[C@H](COP(=O)(O)OP(=O)(O)OP(=O)(O)O)[C@@H](O)C2(F)F)c(=O)n1 [dFdCTP, gemcitabine triphosphate]
accumulation of dFdCTP versus Ara-CTP [26]: 2.4–5.3 fold
accumulation of dFdCTP compared to Ara-CTP ([27]; AML cell lines): 7.3–61.2 fold
share of the total intracellular accumulation ([27]; all cell lines evaluated): 58–81%
cellular elimination half-life (biphasic) [28]: 15 to 24 h
